Laboratory results from patent US8143226B2, “Tyrosine kinase receptor antagonists and methods of treatment for breast cancer” (The Regents of the University of California, priority 2005, dated 2012).

Legend:
Akt/BAD pathway = assay: IGF-1 stimulated Akt and BAD phosphorylation in MCF-7 cells (western blot); type: cell-based, human; conditions: 1 nM IGF-1
Experimental: Inhibition of IGF-1-stimulated activation of serine kinase Akt was determined in the lysates prepared for the IGF-1R phosphotyrosine ELISA described above. 12 μg of sample was subjected to SDS-PAGE, transfer-ed to a nitrocellulose membrane, and […] quantified by blotting overnight at 4 C with a phospho-specific antibody to Akt (ser473) diluted 1:1000 in Superblock. Next, blots were washed with 3 times with TBST, then incubated with HRP conjugated sheep anti-rabbit IgG diluted 1:10,000 in Superblock for 90 minutes at room temperature. Phosphorylation of the apoptotic protein BAD was determined in the same manner by blotting with a phospho-specific antibody to BAD (ser136) (1:1,000).

IGF-1R = molecular target: T1, IGF-1R (Mus musculus, UniProt Q60751); assay: IGF-1R autophosphorylation in excised MCNeuA tumors (ELISA); type: in vivo; conditions: 37.5 mg/kg i.p. three times a week, 16 hours after final dose, vs vehicle
T1 construct: from tissue; host or cells: MCNeuA tumours excised from neuTg mice
Experimental: Tumors were homogenized in 50 mM HEPES, pH 7.6, 150 mM NaCl, 1 mM PMSF, 2 μM leupeptin, 2 μM Pepstatin A, and 2 mM Na3VO4, and solubilized by the addition of 1% Triton x-100. Soluble lysates were prepared as described for cell culture studies. Tyrosine phosphorylation of IGF-1R was determined by ELISA as described for MCF-7 cells. Phosphorylation of HER2/neu was determined by western blot employing the phospho-specific antibody as in the cell culture studies. The degree of phosphorylation for each receptor was normalized to total receptor protein content in the tumor samples as determined by western blotting with antibodies against the human IGF-1R and the rodent HER2/neu.

IGF-IR = molecular target: T2, IGF-IR (Homo sapiens, UniProt P08069); assay: IGF-IR phosphorylation ELISA in neuroblastoma cells; type: cell-based; conditions: SHEP and SH-SY5Y cells, 60 μM NDGA 1 h, 1 nM IGF-I 10 min
T2 construct: endogenous in cells; host or cells: SH-SY5Y and SHEP
Experimental: IGF-1R phlosphorylation ELISA. SH-SY5Y and SHEP cells were grown to 80% confluence in DMEM/10% calf serum, then serum-starved for 4 h. […] Some cultures were then treated with 1 nM IGF-I for 10 min. The medium was removed, cultures rinsed 3× in cold PBS, and lysis buffer (120 mM HEPES, 300 mM NaCl, 2 mM sodium orthovanadate, and 1 mM phenylmethylsufonylfluoride (PMSF)) was added. Cultures were rocked in lysis buffer at 4° C. for 1 h. 96-well plates were coated with αIR-3 antibody in 50 mM NaHCO3, pH 9.0, for 2 h at RT. Plates were rinsed 3× in tris-buffered saline +0.1% Tween (TBST), then blocked with SuperBlock (Pierce, Rockford, Ill.) for 30 min at RT. Each well of the ELISA plate received 30 μg of lysate protein from the cell cultures, followed by 24 h incubation at 4° C. Plates were rinsed 5× with TBST, and HRP-conjugated anti-phosphotyrosine antibody was added (1:2000, diluted in 120 mM HEPES, 300 mM NaCl, 2 mM sodium orthovanadate. and 1 mM PMSF. 1% bovine serum albumin, 1 mg/ml bacitracin, and 0.5% Tween-20) for 2 h at RT. Plates were again rinsed 5× in TBST, and TMB (Pierce) was added until blue color was sufficiently developed. […] Each lysate was run in triplicate, and the experiment was repeated 3 times.

EGF receptor = EGF receptor (Homo sapiens, UniProt P00533); conditions: Seufferlein et al. 2002; cited from earlier work
MCF-7/neo cells [1] = assay: Tamoxifen and/or NDGA growth inhibition of MCF-7/neo cells (CyQuant); type: cell-based; conditions: Homo sapiens, MCF7
Experimental: Cells were estrogen-starved for three days in DMEM containing 10% charcoal-[…]-stripped FCS (CDSS) prior to their plating in 96 well plates. Cells were plated in 100 μl of the same media, allowed to adhere overnight, and then were switched to DMEM+10% CDSS supplemented with 100 pM estrogen. […] The media and inhibitors were refreshed on day 3, the cultures were harvested on day 6, and a CyQuant assay was performed as described above.

MCF-7 cells = assay: Proliferation of MCF-7 cells in 10% fetal calf serum (CyQUANT); type: cell-based, human; conditions: MCF-7, 10% fetal calf serum
Experimental: MCF-7 or MCNeuA cells were plated in 96 well plates (5×10^3 cells/well) in DMEM supplemented with 10% FCS. One plate was prepared for each harvest day. […] Microplate cultures were harvested on days 0, 1, 2, and 3 by inverting the microplate onto paper towels with gentle blotting to remove growth medium without disrupting adherent cells. Each plate was kept at −80° C. until the end of the experiment (day 3) when all of the plates were thawed and assayed together. After thawing, 200 μl of CyQUANT GR solution was added to each well and the plates were incubated in the dark for two to five minutes. Fluorescence was measured with a SpectraMax Gemini XS fluorescence microplate reader (Molecular Devices, Sunnyvale, Calif.) with 480-nm excitation and 520-nm emission. Proliferation index was calculated as the percent of nucleotide content versus control cells at day 0.

MCF-7/neo cells [2] = assay: Growth of MCF-7/neo cells with RTK inhibitors, 6 days (CyQuant); type: cell-based; conditions: Homo sapiens, MCF7, 144 h, read-out: one half maximal effect on growth
Experimental: MCF-7/neo or MCF-7/HER2-18 cells were plated in 96 well plates (4×10^3 cells/well) in 100 μl/well of DMEM-10 medium. […] Media with inhibitors was refreshed on day 3 and the cultures were harvested on day 6. The plates were inverted onto paper towels with gentle blotting to remove growth medium without disrupting adherent cells. Each plate was kept at −80° C. until assayed for cell growth. After thawing the plate at room temperature, 200 μl of CyQuant GR solution was added to each well and the plates were incubated in the dark for five minutes. Fluorescence was measured with a SpectraMax Gemini XS fluorescence microplate reader (Molecular Devices) with 480-nm excitation and 520-nm emission.

ERK 1 and 2 = assay: IGF-stimulated ERK phosphorylation in neuroblastoma cells; type: cell-based, human; conditions: SH-SY5Y cells, NDGA 1 h, 10 nM IGF-I 15 min
Experimental: (§1) Detection of phospho-Akt and phospho-Erk. […] Then, some cultures were treated with 10 nM IGF-I for 15 min. Cultures were immediately placed on ice, the medium was removed, and the cells were lysed in modified RIPA buffer (20 mM Tris, 150 mM NaCl, 1 mM EDTA, 1 mM EGTA, 1% Triton X-100, 0.1% sodium dodecyl sulfate, and 1% deoxycholate). Fifty μg of protein from each sample were separated via SDS-PAGE and transfened to nitrocellulose. Phospho- and total-Akt and -Erk were detected by immunoblotting.

Akt = assay: IGF-stimulated Akt phosphorylation in neuroblastoma cells; type: cell-based, human; conditions: SH-SY5Y and SHEP cells
Experimental: as §1

T1 sequence (Q60751 31-1373): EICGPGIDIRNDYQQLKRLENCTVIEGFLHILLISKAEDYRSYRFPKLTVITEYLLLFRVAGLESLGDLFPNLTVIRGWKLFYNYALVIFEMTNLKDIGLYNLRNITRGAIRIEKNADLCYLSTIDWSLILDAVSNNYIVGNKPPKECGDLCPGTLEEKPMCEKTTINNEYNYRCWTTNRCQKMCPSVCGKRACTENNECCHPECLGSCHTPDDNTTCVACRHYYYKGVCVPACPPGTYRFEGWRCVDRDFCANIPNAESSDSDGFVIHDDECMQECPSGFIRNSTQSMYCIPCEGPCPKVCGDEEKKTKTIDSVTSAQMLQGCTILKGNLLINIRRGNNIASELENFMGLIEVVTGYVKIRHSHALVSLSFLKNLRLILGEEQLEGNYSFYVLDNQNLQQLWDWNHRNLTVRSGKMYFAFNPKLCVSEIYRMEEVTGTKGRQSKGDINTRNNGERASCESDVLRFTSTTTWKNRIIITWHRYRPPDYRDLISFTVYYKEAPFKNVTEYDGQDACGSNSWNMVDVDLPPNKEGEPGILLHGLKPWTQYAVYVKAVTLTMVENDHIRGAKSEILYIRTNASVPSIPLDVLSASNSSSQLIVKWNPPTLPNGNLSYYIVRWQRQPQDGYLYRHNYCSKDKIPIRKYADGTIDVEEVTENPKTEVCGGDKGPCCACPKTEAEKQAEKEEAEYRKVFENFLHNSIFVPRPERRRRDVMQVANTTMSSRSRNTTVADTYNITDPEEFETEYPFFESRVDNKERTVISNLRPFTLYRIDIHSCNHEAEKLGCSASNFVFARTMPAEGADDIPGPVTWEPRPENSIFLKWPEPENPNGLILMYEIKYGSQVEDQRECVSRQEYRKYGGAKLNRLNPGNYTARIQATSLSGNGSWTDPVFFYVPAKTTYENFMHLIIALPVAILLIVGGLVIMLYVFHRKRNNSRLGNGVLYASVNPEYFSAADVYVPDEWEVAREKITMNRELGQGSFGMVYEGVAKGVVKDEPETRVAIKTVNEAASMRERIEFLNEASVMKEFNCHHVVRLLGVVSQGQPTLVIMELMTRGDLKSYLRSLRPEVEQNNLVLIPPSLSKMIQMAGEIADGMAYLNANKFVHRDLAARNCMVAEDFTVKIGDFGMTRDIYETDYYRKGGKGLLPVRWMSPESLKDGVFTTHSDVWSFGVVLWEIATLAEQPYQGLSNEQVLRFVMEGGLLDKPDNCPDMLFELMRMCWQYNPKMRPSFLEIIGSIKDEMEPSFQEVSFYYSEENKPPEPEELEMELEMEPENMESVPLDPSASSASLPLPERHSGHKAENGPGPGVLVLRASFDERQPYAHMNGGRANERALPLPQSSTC
Chain of EGF receptor (P00533 25-1210): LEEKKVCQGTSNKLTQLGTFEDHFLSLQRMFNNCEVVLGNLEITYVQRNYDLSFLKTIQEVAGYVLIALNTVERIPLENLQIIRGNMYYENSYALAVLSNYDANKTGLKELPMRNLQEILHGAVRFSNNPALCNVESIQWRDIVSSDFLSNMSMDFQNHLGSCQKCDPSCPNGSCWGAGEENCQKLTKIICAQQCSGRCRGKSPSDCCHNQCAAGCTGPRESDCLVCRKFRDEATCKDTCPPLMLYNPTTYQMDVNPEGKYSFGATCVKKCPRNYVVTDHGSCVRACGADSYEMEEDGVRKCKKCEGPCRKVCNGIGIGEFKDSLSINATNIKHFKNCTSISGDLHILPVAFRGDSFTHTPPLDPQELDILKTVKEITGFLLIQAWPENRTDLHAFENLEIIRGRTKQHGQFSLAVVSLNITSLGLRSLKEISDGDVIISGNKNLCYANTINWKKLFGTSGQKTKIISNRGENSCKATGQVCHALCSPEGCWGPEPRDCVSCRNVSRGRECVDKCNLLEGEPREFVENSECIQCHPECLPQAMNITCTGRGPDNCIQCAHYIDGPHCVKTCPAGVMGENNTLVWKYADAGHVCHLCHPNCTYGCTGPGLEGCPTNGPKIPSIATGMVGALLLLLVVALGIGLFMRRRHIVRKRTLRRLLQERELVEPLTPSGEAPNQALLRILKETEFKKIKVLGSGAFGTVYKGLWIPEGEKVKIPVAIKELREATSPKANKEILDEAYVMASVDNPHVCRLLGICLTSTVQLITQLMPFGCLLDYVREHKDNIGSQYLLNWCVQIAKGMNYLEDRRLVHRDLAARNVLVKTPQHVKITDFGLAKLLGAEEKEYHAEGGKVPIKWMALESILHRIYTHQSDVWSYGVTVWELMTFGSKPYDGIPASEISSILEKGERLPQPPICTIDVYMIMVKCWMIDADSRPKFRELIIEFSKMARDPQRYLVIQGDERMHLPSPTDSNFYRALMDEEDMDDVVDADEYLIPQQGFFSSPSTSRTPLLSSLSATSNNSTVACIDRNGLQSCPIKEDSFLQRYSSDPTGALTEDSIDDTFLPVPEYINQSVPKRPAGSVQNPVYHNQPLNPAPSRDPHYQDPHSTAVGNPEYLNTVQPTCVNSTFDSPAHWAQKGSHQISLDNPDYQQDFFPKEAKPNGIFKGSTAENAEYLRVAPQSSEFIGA
T2 sequence (P08069 31-1367): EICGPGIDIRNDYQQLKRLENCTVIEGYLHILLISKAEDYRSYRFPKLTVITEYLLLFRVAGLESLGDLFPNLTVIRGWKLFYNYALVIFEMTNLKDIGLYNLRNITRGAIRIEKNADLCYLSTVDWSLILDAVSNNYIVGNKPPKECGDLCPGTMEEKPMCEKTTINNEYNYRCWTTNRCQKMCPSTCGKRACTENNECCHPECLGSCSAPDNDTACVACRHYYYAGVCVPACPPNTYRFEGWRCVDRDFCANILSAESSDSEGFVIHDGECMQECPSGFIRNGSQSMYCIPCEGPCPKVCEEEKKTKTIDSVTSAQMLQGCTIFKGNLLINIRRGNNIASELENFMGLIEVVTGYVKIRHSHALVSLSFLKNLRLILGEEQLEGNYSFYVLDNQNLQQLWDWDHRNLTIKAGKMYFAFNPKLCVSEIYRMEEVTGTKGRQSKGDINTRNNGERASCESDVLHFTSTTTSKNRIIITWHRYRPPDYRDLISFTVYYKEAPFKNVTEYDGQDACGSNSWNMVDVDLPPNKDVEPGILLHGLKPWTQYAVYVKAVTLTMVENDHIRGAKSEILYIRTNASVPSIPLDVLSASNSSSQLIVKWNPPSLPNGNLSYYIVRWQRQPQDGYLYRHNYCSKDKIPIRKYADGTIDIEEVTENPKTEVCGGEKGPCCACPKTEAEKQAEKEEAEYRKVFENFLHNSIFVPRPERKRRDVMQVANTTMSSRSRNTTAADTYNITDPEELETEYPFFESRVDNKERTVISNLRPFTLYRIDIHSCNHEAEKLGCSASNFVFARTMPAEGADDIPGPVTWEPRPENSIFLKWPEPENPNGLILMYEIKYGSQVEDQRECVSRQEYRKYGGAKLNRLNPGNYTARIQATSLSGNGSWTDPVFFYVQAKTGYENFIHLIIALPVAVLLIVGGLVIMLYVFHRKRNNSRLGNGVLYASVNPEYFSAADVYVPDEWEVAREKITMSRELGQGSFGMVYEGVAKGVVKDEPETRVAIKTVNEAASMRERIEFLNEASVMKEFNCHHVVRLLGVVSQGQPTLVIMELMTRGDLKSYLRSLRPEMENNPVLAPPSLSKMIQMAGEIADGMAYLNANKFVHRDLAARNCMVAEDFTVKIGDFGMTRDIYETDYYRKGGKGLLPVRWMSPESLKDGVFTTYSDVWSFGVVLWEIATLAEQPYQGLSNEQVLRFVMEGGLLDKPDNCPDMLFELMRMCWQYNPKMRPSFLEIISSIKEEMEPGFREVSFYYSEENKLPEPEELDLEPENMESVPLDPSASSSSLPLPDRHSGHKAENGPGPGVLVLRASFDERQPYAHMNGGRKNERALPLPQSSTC

CC(Cc1ccc(O)c(O)c1)C(C)Cc1ccc(O)c(O)c1 (centres unmarked) [NDGA, nordihydroguaiaretic acid]
IGF-1 stimulated phosphorylation of Akt and BAD (Akt/BAD pathway): reduced in a dose-dependent manner | IGF-1R autophosphorylation in tumors (IGF-1R): reduced | IGF-I stimulated IGF-IR tyrosine phosphorylation (IGF-IR): inhibited | EGF receptor phosphorylation (EGF receptor): no affect | inhibition at 10 µM (MCF-7/neo cells [1]): 23% | inhibition at 15 µM (MCF-7/neo cells [1]): 55% | cell number (MCF-7 cells; 60 μM, within 24 hours): dramatically reduced | lowest concentration significantly reducing rate of proliferation (MCF-7 cells; up to 3 days): 15 µM | IC50 (MCF-7/neo cells [2]): 12.5 µM | IGF-stimulated phosphorylation of ERK (ERK 1 and 2): dose-dependent inhibitory effect | IGF-stimulated Akt phosphorylation (Akt): dose-dependent inhibition
